From US4783462A, “3(2H)pyridazinone, and anti-allergic agent containing it” (Nissan Chemical Industries Ltd., priority 1985, dated 1988)

test system: LTC4; experiment: Antagonism in isolated guinea-pig trachea, Test method (i) (Table 3, given as LTC4 antagonism); format: cell-based; settings: Cavia porcellus, 5 min, test compound 10^-5 g/ml, given as LTC4 antagonisms
Description: (i) LTC4 and LTD4 antagonisms in guinea-pig trachea
Antagonisms for LTC4 and LTD4 were determined in isolated guinea-pig trachea prepared as spiral strip. Tracheal preparations were suspended under 1 g tension in 10 ml organ baths and they were incubated for 1 hr prior to use. Contractile responses to LTC4 (2×10^-8 g/ml) and LTD4 (2×10^-8 g/ml) were obtained after the maximal response to histamine (10^-4 M). Test compounds dissolved in 100% dimethyl sulfoxide were added to the organ baths (final concentration of 10^-5 g/ml or 10^-6 g/ml) 5 min prior to LTC4 and LTD4 addition, and then contractile responses to LTC4 and LTD4 were compared with those of control which was obtained from a paired trachea in the absence of test compounds. LTC4 - and LTD4 -induced contractions were expressed as a percentage of the maximal response to histamine. The antagonism was determined as follows:
Antagonism (%)=(1.0-% contraction in test/% contraction in […]

First: CCCc1cc(-c2nnn[nH]2)ccc1OCCCNc1cnn(C(C)(C)C)c(=O)c1Cl [Compound No. 2, 4-Chloro-5-{3-[2-n-propyl-4-(1H-tetrazol-5-ylphenoxy)]propylamino}-2-t-butyl-3(2H)pyridazinone]
Second: CCCc1cc(C(=O)O)ccc1OCCCNc1cnn(C(C)(C)C)c(=O)c1Cl [compound 5]
The inhibition at 10 µg/mL of the first is lower: 15% for the first, 33% for the second.

First: CCCc1cc(C(=O)OC)ccc1OCCCNc1cnn(C(C)(C)C)c(=O)c1Cl [Compound No. 3]
Second: CCOC(=O)c1ccc(OCCCNc2cnn(C(C)(C)C)c(=O)c2Cl)c(Cl)c1 [Compound No. 8]
The inhibition at 10 µg/mL of the first is lower: 28% for the first, 32% for the second.

Going from `CC(C)(C)n1ncc(NCCCOc2ccc(C(=O)O)cc2Cl)c(Cl)c1=O` [Compound No. 9] to `CC(C)(C)n1ncc(OCCCOc2ccc(C(=O)O)cc2Cl)c(Cl)c1=O` [compound 33], the inhibition at 10 µg/mL rises from 14% to 15%.

Going from `CCn1ncc(NCCCOc2ccc(C(=O)O)cc2Cl)c(Cl)c1=O` [Compound No. 11] to `CCn1ncc(NCCCOc2ccc(C(=O)O)cc2OC)c(Cl)c1=O` [compound 52], the inhibition at 10 µg/mL rises from 13% to 23%.

Going from `CCCc1cc(C(=O)O)ccc1OCCCNc1cnn(C)c(=O)c1Cl` [Compound No. 12] to `C=CCc1cc(C(=O)O)ccc1OCCCNc1cnn(C(C)C)c(=O)c1Cl` [compound 70], the inhibition at 10 µg/mL rises from 35% to 65%.

First: Cc1ccc(S(=O)(=O)OCCCNc2cnn(C(C)(C)C)c(=O)c2Cl)cc1 [Compound No. 15, 4-Chloro-5-[3-(4-methylphenylsulfonyloxy)propylamino]-2-t-butyl-3(2H)pyridazinone]
Second: Cc1ccc(S(=O)(=O)OCC(O)CNc2cnn(C(C)C)c(=O)c2Cl)cc1 (stereo not drawn) [Compound No. 143, 4-Chloro-5-[3-(4-methylphenylsulfonyloxy)-2-hydroxypropylamino]-2-i-propyl-3(2H)pyridazinone]
The inhibition at 10 µg/mL of the first is higher: 40% for the first, 26% for the second.

First: COc1ccc(CCNc2cnn(C(C)(C)C)c(=O)c2Cl)cc1OC [Compound No. 16]
Second: CCn1ncc(NCCc2ccc(OC)c(OC)c2)c(Cl)c1=O [Compound No. 18]
The inhibition at 10 µg/mL of the first is higher: 31% for the first, 20% for the second.

Going from `CCn1ncc(NCCCOC(=O)c2ccc(Cl)cc2)c(Cl)c1=O` [Compound No. 17] to `CCn1ncc(NCCCOc2ccc(C)cc2)c(Cl)c1=O` [compound 54], the inhibition at 10 µg/mL rises from 45% to 64%.

Going from `CCOC(=O)c1ccc(OCCCOc2cnn(CC)c(=O)c2Cl)c(Cl)c1` [Compound No. 30, 4-Chloro-5-[3-(2-chloro-4-ethoxycarbonylphenoxy)propoxy]-2-ethyl-3(2H)pyridazinone] to `CCn1ncc(OCCCOc2ccc(C(=O)O)cc2Cl)c(Cl)c1=O` [compound 31], the inhibition at 10 µg/mL falls from 40% to 19%.

`CCCc1c(OCCCOc2cnn(C(C)(C)C)c(=O)c2Cl)ccc(C(C)=O)c1O` [Compound No. 37, 4-Chloro-5-[3-(2-n-propyl-3-hydroxy-4-acetylphenoxy)propoxy]-2-t-butyl-3(2H)pyridazinone] and `CCCc1c(OCCCOc2cnn(C(C)(C)C)c(=O)c2Cl)ccc2c(=O)cc(C(=O)O)oc12` [compound 24] are the same in inhibition at 10 µg/mL: 40% for the first, 40% for the second.

Going from `CCCc1cc(C(=O)OCC)ccc1OCCCNc1cnn(C(C)C)c(=O)c1` [Compound No. 63, 5-[3-(2-n-propyl-4-ethoxycarbonylphenoxy)propylamino]-2-i-propyl-3(2H)pyridazinone] to `CCCc1cc(C(=O)OC)ccc1OCCCN(C)c1cnn(C(C)C)c(=O)c1Cl` [Compound No. 73, 4-Choloro-5-[3-(2-n-propyl-4-methoxycarbonylphenoxy)propyl-N-methylamino]-2-i-propyl-3(2H)pyridazinone], the inhibition at 10 µg/mL falls from 54% to 48%.

Compared with `CCc1cc(C=O)ccc1OCCCNc1cnn(CC)c(=O)c1Cl` [Compound No. 92, 4-chloro-5-[3-(2-ethyl-4-formylphenoxy)propylamino]-2-ethyl-3(2H) pyridazinone], `CCc1cc(C=CC(=O)O)ccc1OCCCNc1cnn(CC)c(=O)c1Cl` [Compound No. 93, 4-Chloro-5-{3-[2-ethyl-4-(2-carboxyethenyl)phenoxy]propylamino}-2-ethyl-3(2H)pyridazinone] is lower in inhibition at 10 µg/mL: 100% for the first, 79% for the second.

First: CCCc1cc(O)ccc1OCCCNc1cnn(CC)c(=O)c1Cl [Compound No. 108, 4-Chloro-5-[3-(2-n-propyl-4-hydroxyphenoxy)propylamino]-2-ethyl-3(2H)pyridazinone]
Second: CCCc1cc(-c2nn[nH]n2)ccc1OCCCNc1cnn(CC)c(=O)c1Cl [compound 48]
The inhibition at 10 µg/mL of the first is higher: 94% for the first, 36% for the second.

Compared with `CCCc1cc(C#N)ccc1SCC(O)CNc1cnn(C(C)C)c(=O)c1Cl` (stereo not drawn) [Compound No. 153, 4-Chloro-5-[3-(2-n-propyl-4-cyanothiophenoxy)-2-hydroxypropylamino]-2-i-propyl-3(2H)pyridazinone], `CCCc1cc(C(=O)O)ccc1SCC(O)CNc1cnn(C(C)C)c(=O)c1Cl` (stereo not drawn) [Compound No. 154, 4-Chloro-5-[3-(2-n-propyl-4-carboxythiophenoxy)-2-hydroxypropylamino]-2-i-propyl-3(2H)pyridazinone] is lower in inhibition at 10 µg/mL: 64% for the first, 20% for the second.

Compared with `CCCc1cc(C(=O)OC)ccc1SCC(O)CNc1cnn(C(C)C)c(=O)c1Cl` (stereo not drawn) [Compound No. 155, 4-Chloro-5-[3-(2-n-propyl-4-methoxycarbonylthiophenoxy)-2-hydroxypropylamino]-2-i-propyl-3(2H) pyridazinone], `CCCc1cc(C(=O)O)ccc1SCCCNc1cnn(C(C)C)c(=O)c1Cl` [compound 62] is higher in inhibition at 10 µg/mL: 55% for the first, 57% for the second.

Compared with `CCCc1cc(C#N)ccc1OCC(CN(C)c1cnn(C(C)C)c(=O)c1Cl)OC` (stereo not drawn) [Compound No. 157, 4-Chloro-5-[3-(2-n-propyl-4-cyanophenoxv)-2-methoxypropyl-N-methylamino]-2-i-propyl-3(2H)pyridazinone], `CCCc1cc(C#N)ccc1OCC(COc1cnn(C(C)C)c(=O)c1Cl)OC` (stereo not drawn) [Compound No. 172, 4-Chloro-5-[3-(2-n-propyl-4-cyanophenoxy)-2-methoxypropoxy]-2-i-propyl-3(2H)pyridazinone] is higher in inhibition at 10 µg/mL: 62% for the first, 79% for the second.

Going from `COC(=O)CCC(=O)c1ccc(OCC(O)CNc2cnn(C(C)C)c(=O)c2Cl)cc1` (stereo not drawn) [Compound No. 166, 4-chloro-5-{3-[4-(β-methoxycarbonylpropyonyl)phenoxy]-2-hydroxypropylamino}-2-i-propyl-3(2H) pyridazinone] to `COC(=O)CCC(=O)c1ccc(OCCCNc2cnn(C(C)C)c(=O)c2Cl)cc1` [compound 76], the inhibition at 10 µg/mL rises from 25% to 57%.

First: COC(=O)CC(C)C(=O)c1ccc(OCC(CN(C)c2cnn(C(C)C)c(=O)c2Cl)OC)cc1 (stereo not drawn) [Compound No. 167, 4-Chloro-5-{3-[4-(β-methoxycarbonyl-α-methylpropionyl)phenoxy]-2-methoxypropyl-N-methylamino}-2-i-propyl-3(2H)pyridazinone]
Second: COC(=O)CCC(=O)c1ccc(OCCCN(C)c2cnn(C(C)C)c(=O)c2Cl)cc1 [compound 77]
The inhibition at 10 µg/mL of the first is higher: 30% for the first, 17% for the second.

Going from `CCCc1cc(C#N)ccc1OCC(O)COc1cnn(C(C)C)c(=O)c1Cl` (stereo not drawn) [Compound No. 171, 4-Chloro-5-[3-(2-n-propyl-4-cyanophenoxy)-2-hydroxypropoxy]-2-i-propyl-3(2H)pyridazinone] to `CCCc1cc(C#N)ccc1SCCCNc1cnn(C(C)C)c(=O)c1Cl` [compound 61], the inhibition at 10 µg/mL rises from 66% to 73%.

Compared with `COc1ccc(CCNc2cnn(C(C)(C)C)c(=O)c2Cl)cc1` [compound 19], `CC(C)n1ncc(NCCc2ccc(O)cc2)c(Cl)c1=O` [compound 66] is higher in inhibition at 10 µg/mL: 60% for the first, 69% for the second.

Going from `CCCc1c(OCCCOc2cnn(C(C)(C)C)c(=O)c2CC)ccc2c(=O)cc(C(=O)OCC)oc12` [compound 26] to `CCOC(=O)c1ccc(OCCCOc2cnn(C(C)(C)C)c(=O)c2Cl)c(Cl)c1` [compound 32], the inhibition at 10 µg/mL rises from 15% to 29%.

Compared with `COc1cccc(OCCCOc2cnn(C(C)(C)C)c(=O)c2Br)c1` [compound 34], `COc1ccc(OCCCNc2cnn(C(C)C)c(=O)c2Cl)cc1` [compound 58] is higher in inhibition at 10 µg/mL: 61% for the first, 88% for the second.

Going from `CCOC(=O)c1ccc(OCCCNc2cnn(CC)c(=O)c2Cl)c(OC)c1` [compound 49] to `C=CCc1cc(C(=O)OC)ccc1OCCCNc1cnn(CC)c(=O)c1Cl` [compound 81], the inhibition at 10 µg/mL rises from 57% to 80%.

First: CCn1ncc(NCCCOc2ccccc2OC)c(Cl)c1=O [compound 50]
Second: CCn1ncc(NCCCOc2ccccc2C)c(Cl)c1=O [compound 57]
The inhibition at 10 µg/mL of the first is lower: 35% for the first, 83% for the second.

Compared with `CCOc1ccc(OCCCNc2cnn(CC)c(=O)c2Cl)cc1` [compound 53], `CCn1ncc(NCCCOc2ccc(OC)cc2)c(Cl)c1=O` [compound 56] is higher in inhibition at 10 µg/mL: 59% for the first, 62% for the second.

Going from `COc1ccccc1OCCCNc1cnn(C(C)C)c(=O)c1Cl` [compound 59] to `CC(C)n1ncc(NCCCOc2ccc(C(=O)CCC(=O)O)cc2)c(Cl)c1=O` [compound 75], the inhibition at 10 µg/mL falls from 82% to 16%.

First: CCCc1cc(-c2nnn[nH]2)ccc1SCCCNc1cnn(C(C)C)c(=O)c1Cl [compound 68]
Second: COC(=O)c1ccc(OCCCOc2cnn(C(C)C)c(=O)c2Cl)c(C(C)C)c1 [compound 79]
The inhibition at 10 µg/mL of the first is lower: 33% for the first, 58% for the second.

Compared with `CC(C)n1ncc(N(C)CCCOc2ccc(C(=O)CCC(=O)O)cc2)c(Cl)c1=O` [compound 78], `CCCc1cc(C(=O)O)ccc1OCCCOc1cnn(CC)c(=O)c1Cl` [compound 83] is higher in inhibition at 10 µg/mL: 32% for the first, 46% for the second.

`CCCc1cc(C(=O)OC)ccc1OCCCOc1cnn(CC)c(=O)c1Cl` [compound 84] showed an inhibition at 10 µg/mL of 85%.
